From paper PMC7915026, “Sulfaguanidine Hybrid with Some New Pyridine-2-One Derivatives: Design, Synthesis, and Antimicrobial Activity against Multidrug-Resistant Bacteria as Dual DNA Gyrase and DHFR Inhibitors” (Antibiotics, 2021)
Values after ≈ are worked out from the molar mass of the structure shown. Read-outs that look alike come from different tables or passages of the source.

Legend:
[1] = test system: F. oxysporum (RCMB 008002); test: MIC and MFC determination; assay type: cell-based
E. faecalis ATCC 29212 [2] = test: MIC and MBC determination; assay type: cell-based; settings: Enterococcus faecalis, ATCC29212, E. faecalis
[3] = test system: P. aeruginosa ATCC BAA-2111; test: MIC and MBC against multidrug-resistant strains; assay type: cell-based; settings: Pseudomonas aeruginosa, ATCCBAA2111, P. aeruginosa ATCC BAA-2111
Text: (§1) Norfloxacin was used as a positive control for the multidrug resistance study.
(§2) The experiment was repeating for three-times.

S. aureus ATCC 33591 [4] = test: MIC and MBC against multidrug-resistant strains; assay type: cell-based; settings: Staphylococcus aureus, ATCC33591, S. aureus ATCC 33591
Text: as §1, §2

E. coli ATCC BAA-196 [5] = test: MIC and MBC against multidrug-resistant strains; assay type: cell-based; settings: Escherichia coli, ATCCBAA196, E. coli ATCC BAA-196
Text: as §1, §2

S. aureus ATCC 43300 [6] = test: MIC and MBC against multidrug-resistant strains; assay type: cell-based; settings: Staphylococcus aureus, ATCC43300, S. aureus ATCC 43300
Text: as §1, §2

B. subtilis ATCC 6633 [7] = test: MIC and MBC determination; assay type: cell-based; settings: Bacillus subtilis, ATCC6633, B. subtilis
[8] = test system: P. aeruginosa ATCC BAA-2111; test: Inhibition zone against multidrug-resistant bacteria; assay type: cell-based; settings: MDRB P. aeruginosa ATCC BAA-2111
Text: as §1
(§3) The antimicrobial activity performed at the bacteriology laboratory, Botany and Microbiology Department, Faculty of Science, Al-Azhar University, Cairo, Egypt. The inhibition zone (IZ) of the tested derivatives expressed as the diameter (mm) according to the agar plate diffusion method.

S. aureus ATCC 33591 [9] = test: as above; assay type: cell-based; settings: MDRB S. aureus ATCC 33591
Text: as §1, §3

E. coli ATCC BAA-196 [10] = test: as above; assay type: cell-based; settings: MDRB E. coli ATCC BAA-196
Text: as §1, §3

S. aureus ATCC 43300 [11] = test: as above; assay type: cell-based; settings: MDRB S. aureus ATCC 43300
Text: as §1, §3

neutrophils = test: In vitro intracellular killing, nitro blue tetrazolium (NBT) reduction assay; assay type: cell-based
Method: One of the broad methods used for determining immune disorders for patients in hospitals is the NBT test to measure their immune responses. The reduction in NBT dye provides information about the phagocytic and intracellular killing functions of neutrophils, which are important for microbiocidal activity. The most promising derivatives (2a, 2b, 2d, 3a, 8, and 11) were evaluated against in vitro intracellular killing activities using a nitro blue tetrazolium (NBT) reduction assay and the obtained results expressed in percentage (%): increasing the percentage led to an improvement in the killing ability of the neutrophils used as innate immunity.
(§4) In vitro intracellular killing activities for the most promising six derivatives 2a, 2b, 2d, 3a, 8, and 11 were performed according to reported methods.

S. aureus ATCC 29213 [12] = test: MIC and MBC determination; assay type: cell-based; settings: S. aureus
E. coli ATCC 25922 = test: MIC and MBC determination; assay type: cell-based; settings: Escherichia coli, ATCC25922, E. coli
S. typhi ATCC 6539 = test: Inhibition zone, paper disk/agar diffusion; assay type: cell-based; settings: S. typhi; Na = no activity
Procedure, shortened: (§5)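 Norfloxacin was included as a positive control. Compounds diffused into seeded agar, and zones of inhibition were recorded as diameter (mm).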

[13] = test system: F. oxysporum (RCMB 008002); test: Inhibition zone, paper disk/agar diffusion; assay type: cell-based; settings: Na = no activity
Procedure, shortened: as §5

S. aureus ATCC 29213 [14] = test: Inhibition zone, paper disk/agar diffusion; assay type: cell-based; settings: S. aureus; Na = no activity
Procedure, shortened: as §5

B. subtilis ATCC 6633 [15] = test: Inhibition zone, paper disk/agar diffusion; assay type: cell-based; settings: B. subtilis; Na = no activity
Procedure, shortened: as §5

C. albicans (ATCC 10231) [16] = test: Inhibition zone, paper disk/agar diffusion; assay type: cell-based; settings: Na = no activity
Procedure, shortened: as §5

E. faecalis ATCC 29212 [17] = test: Inhibition zone, paper disk/agar diffusion; assay type: cell-based; settings: E. faecalis; Na = no activity
Procedure, shortened: as §5

P. aeruginosa ATCC 27853 [18] = test: Inhibition zone, paper disk/agar diffusion; assay type: cell-based; settings: P. aeruginosa; Na = no activity
Procedure, shortened: as §5

spleen and thymus = test: In vivo immunomodulation: immune organ weight and indexes; parameters: Spleen index: unit not given here; settings: mice
Text: Both the spleen and thymus have important antibacterial and fungal immune organ responses, and any change in weight, and indexes can reflect the level of immune regulation. Additionally, the relative spleen and thymus indexes are important indices for nonspecific immunity and potential immunomodulatory compounds that increase the spleen and thymus weight. This increase is due to immune cells’ stimulation in the spleen and thymus. […]

[19] = test system: Salmonella typhi (S. typhi ATCC 6539); test: microbe, parasite or virus in culture; assay type: cell-based; settings: Salmonella enterica, Salmonella typhi
P. aeruginosa ATCC 27853 [20] = test: MIC and MBC determination; assay type: cell-based; settings: Pseudomonas aeruginosa, ATCC27853, P. aeruginosa
[21] = biological target: E. coli DHFR (dihydrofolate reductase) (Escherichia coli, UniProt P0ABQ4); test: In vitro DHFR enzymatic assay; assay type: biochemical
Sequence of E. coli DHFR (dihydrofolate reductase) (P0ABQ4 whole entry): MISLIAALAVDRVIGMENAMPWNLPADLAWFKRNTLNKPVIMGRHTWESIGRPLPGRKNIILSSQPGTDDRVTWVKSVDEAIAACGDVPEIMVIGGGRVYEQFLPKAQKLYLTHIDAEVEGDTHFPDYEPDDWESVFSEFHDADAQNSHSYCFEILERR

S. aureus DNA gyrase = S. aureus DNA gyrase (Staphylococcus aureus, UniProt P0A0K8+P20831); test: In vitro DNA gyrase supercoiling enzymatic assay; assay type: biochemical
Sequence of S. aureus DNA gyrase (P20831 whole entry): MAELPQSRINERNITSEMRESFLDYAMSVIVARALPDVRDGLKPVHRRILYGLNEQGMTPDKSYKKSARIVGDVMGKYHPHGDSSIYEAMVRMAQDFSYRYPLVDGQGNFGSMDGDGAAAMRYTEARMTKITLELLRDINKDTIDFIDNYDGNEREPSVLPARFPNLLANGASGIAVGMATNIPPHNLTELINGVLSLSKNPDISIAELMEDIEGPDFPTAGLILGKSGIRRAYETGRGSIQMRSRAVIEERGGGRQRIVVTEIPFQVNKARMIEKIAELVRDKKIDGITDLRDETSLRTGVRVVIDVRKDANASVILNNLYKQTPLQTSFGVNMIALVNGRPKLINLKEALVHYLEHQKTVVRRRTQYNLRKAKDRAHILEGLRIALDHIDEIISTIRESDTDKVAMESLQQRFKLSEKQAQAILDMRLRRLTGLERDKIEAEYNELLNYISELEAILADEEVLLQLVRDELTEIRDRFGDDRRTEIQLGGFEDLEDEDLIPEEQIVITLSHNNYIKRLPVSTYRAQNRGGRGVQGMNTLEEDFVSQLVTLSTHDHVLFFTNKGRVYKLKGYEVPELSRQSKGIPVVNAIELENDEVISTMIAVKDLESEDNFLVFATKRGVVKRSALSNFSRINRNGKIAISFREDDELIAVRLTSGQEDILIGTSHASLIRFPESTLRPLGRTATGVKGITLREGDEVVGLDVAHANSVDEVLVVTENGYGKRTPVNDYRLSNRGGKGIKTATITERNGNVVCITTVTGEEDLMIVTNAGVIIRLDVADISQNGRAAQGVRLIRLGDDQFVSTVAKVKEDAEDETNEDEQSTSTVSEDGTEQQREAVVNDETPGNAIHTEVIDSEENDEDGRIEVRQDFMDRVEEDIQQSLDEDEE
Sequence of S. aureus DNA gyrase (P0A0K8 whole entry): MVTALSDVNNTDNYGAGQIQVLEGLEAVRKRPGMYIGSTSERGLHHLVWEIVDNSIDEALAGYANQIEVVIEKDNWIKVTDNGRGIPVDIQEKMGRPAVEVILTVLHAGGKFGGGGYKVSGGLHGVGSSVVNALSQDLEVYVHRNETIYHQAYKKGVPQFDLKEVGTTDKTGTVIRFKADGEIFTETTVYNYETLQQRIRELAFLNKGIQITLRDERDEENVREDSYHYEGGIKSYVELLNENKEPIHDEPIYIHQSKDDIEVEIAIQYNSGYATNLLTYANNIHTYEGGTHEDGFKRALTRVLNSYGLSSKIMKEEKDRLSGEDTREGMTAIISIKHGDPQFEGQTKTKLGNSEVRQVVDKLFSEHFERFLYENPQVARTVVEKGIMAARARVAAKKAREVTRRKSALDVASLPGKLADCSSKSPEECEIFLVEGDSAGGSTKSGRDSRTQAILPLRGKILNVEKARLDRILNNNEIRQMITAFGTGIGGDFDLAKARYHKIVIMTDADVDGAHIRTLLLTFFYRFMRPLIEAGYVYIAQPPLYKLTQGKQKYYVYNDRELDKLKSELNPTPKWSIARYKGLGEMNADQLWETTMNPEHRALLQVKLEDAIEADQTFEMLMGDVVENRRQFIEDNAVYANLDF

[22] = test system: CD4+ and CD8+ T lymphocytes; test: In vivo T lymphocyte subsets from peripheral blood, flow cytometry; settings: mice
Text: Activation of immune cells as CD4^+ and CD8^+ T cells is one possible mechanism of a drug’s immune stimulus activity. An increase in these cells is thought to be a good indicator of an active immune response to infections. So, our work extended to study the effect of the most promising derivatives (2d, 8, and 11) on T lymphocyte subsets (CD4^+ and CD8^+) from peripheral blood, and determined the relative level in model mice that analyzed by flow cytometry after the period of treating.
as §4

C. albicans (ATCC 10231) [23] = test: MIC and MFC determination; assay type: cell-based

Cc1cc(C)n(-c2ccc(S(=O)(=O)NC(=N)N)cc2)c(=O)c1C#N [Compound 8, N-Carbamimidoyl-4-(3-cyano-4,6-dimethyl-2-oxopyridin-1(2H)-yl) benzenesulfonamide]
MFC/MIC [1]: <2
MFC ([1]; Fusarium oxysporum, RCMB008002, read-out: MFC): 136 ± 1.98 µM (≈ 46.9 µg/mL)
MIC ([1]; Fusarium oxysporum, RCMB008002, read-out: MIC): 90.48 ± 0.84 µM (≈ 31.3 µg/mL)
MBC (E. faecalis ATCC 29212 [2]; read-out: MBC): 19.19 ± 0.18 µM (≈ 6.63 µg/mL)
MIC (E. faecalis ATCC 29212 [2]; read-out: MIC): 11.3 ± 0.52 µM (≈ 3.9 µg/mL)
MBC ([3]; read-out: MBC): 45.2 ± 0.87 µM (≈ 15.6 µg/mL)
MIC ([3]; read-out: MIC): 22.6 ± 0.98 µM (≈ 7.81 µg/mL)
MBC (S. aureus ATCC 33591 [4]; read-out: MBC): 46.3 ± 0.58 µM (≈ 16 µg/mL)
MIC (S. aureus ATCC 33591 [4]; read-out: MIC): 25.7 ± 0.36 µM (≈ 8.88 µg/mL)
MBC (E. coli ATCC BAA-196 [5]; read-out: MBC): 53.56 ± 0.41 µM (≈ 18.5 µg/mL)
MIC (E. coli ATCC BAA-196 [5]; read-out: MIC): 26.8 ± 0.65 µM (≈ 9.25 µg/mL)
MBC (S. aureus ATCC 43300 [6]; read-out: MBC): 34.36 ± 0.24 µM (≈ 11.9 µg/mL)
MIC (S. aureus ATCC 43300 [6]; read-out: MIC): 18.1 ± 0.84 µM (≈ 6.25 µg/mL)
MBC (B. subtilis ATCC 6633 [7]; read-out: MBC): 30.6 ± 1.78 µM (≈ 10.6 µg/mL)
MIC (B. subtilis ATCC 6633 [7]; read-out: MIC): 16.1 ± 0.54 µM (≈ 5.57 µg/mL)
Mean Diameter of Inhibition Zone [8]: 21 ± 0.63 mm
Mean Diameter of Inhibition Zone (S. aureus ATCC 33591 [9]): 15 ± 0.33 mm
Mean Diameter of Inhibition Zone (E. coli ATCC BAA-196 [10]): 20 ± 0.74 mm
Mean Diameter of Inhibition Zone (S. aureus ATCC 43300 [11]): 22 ± 0.5 mm
Intracellular Killing Activity (neutrophils): 136.5 ± 0.3%
MBC (S. aureus ATCC 29213 [12]): 10.71 ± 0.36 µM (≈ 3.7 µg/mL)
MIC (S. aureus ATCC 29213 [12]): 5.64 ± 0.58 µM (≈ 1.95 µg/mL)
MBC (S. aureus ATCC 29213 [12]; Staphylococcus aureus, ATCC29213, read-out: MBC): 10.7 µM (≈ 3.7 µg/mL)
MIC (S. aureus ATCC 29213 [12]; Staphylococcus aureus, ATCC29213, read-out: MIC): 5.64 µM (≈ 1.95 µg/mL)
MBC (E. coli ATCC 25922; read-out: MBC): 36.2 ± 0.42 µM (≈ 12.5 µg/mL)
MIC (E. coli ATCC 25922; read-out: MIC): 22.6 ± 0.42 µM (≈ 7.81 µg/mL)
Mean Diameter of the Inhibition Zone (S. typhi ATCC 6539): 23 ± 0.11 mm
Mean Diameter of the Inhibition Zone [13]: 20 ± 0.82 mm
Mean Diameter of the Inhibition Zone (S. aureus ATCC 29213 [14]): 26 ± 0.14 mm
Mean Diameter of the Inhibition Zone (B. subtilis ATCC 6633 [15]): 27 ± 0.50 mm
Mean Diameter of the Inhibition Zone (C. albicans (ATCC 10231) [16]): 24 ± 0.30 mm
Mean Diameter of the Inhibition Zone (E. faecalis ATCC 29212 [17]): 25 ± 0.33 mm
Mean Diameter of the Inhibition Zone (P. aeruginosa ATCC 27853 [18]): 25 ± 0.85 mm
Spleen index (spleen and thymus): 0.010 ± 0.00
Spleen weight (spleen and thymus): 200 ± 0.025 mg
Thymus index (spleen and thymus): 0.537 ± 0.14 mg/g
Thymus weight (spleen and thymus): 13.42 ± 0.46 mg
MBC ([19]; read-out: MBC): 19.19 ± 0.14 µM (≈ 6.63 µg/mL)
MIC ([19]; read-out: MIC): 11.3 ± 0.75 µM (≈ 3.9 µg/mL)
MBC (P. aeruginosa ATCC 27853 [20]; read-out: MBC): 172 ± 1.95 µM (≈ 59.4 µg/mL)
MIC (P. aeruginosa ATCC 27853 [20]; read-out: MIC): 90.5 ± 1.07 µM (≈ 31.3 µg/mL)
IC50 [21]: 12.3 ± 0.73 µM
IC50 (S. aureus DNA gyrase): 39.1 ± 1.72 µM
T cells CD4+ [22]: 78.70 ± 0.56%
T cells CD8+ [22]: 18.44 ± 0.2%
MFC/MIC (C. albicans (ATCC 10231) [23]): <2
MFC (C. albicans (ATCC 10231) [23]; Candida albicans, ATCC10231, read-out: MFC): 81.4 ± 0.84 µM (≈ 28.1 µg/mL)
MIC (C. albicans (ATCC 10231) [23]; Candida albicans, ATCC10231, read-out: MIC): 45.2 ± 0.54 µM (≈ 15.6 µg/mL)
